In US12594276B2, “Inhibitors of human immunodeficiency virus replication” (ViiV Healthcare UK (No.5) Limited, priority 2024, dated 2026) one finds EC50 and CC50 data, which are given here for 11 compounds.

pEC50: −log10 of the molar value.

A word on the pEC50: it is the EC50 on a negative log10 scale, so that one unit is a factor of ten. By CC50 is commonly meant the concentration that lowers cell viability or growth by half.

Data set [1] deals with recombinant NL4-3 virus (nef section replaced with Renilla luciferase gene) in MT-2 cells. Nature of the data set: HIV cell culture assay (antiviral activity, luciferase readout). Format: cell-based. The following applies: Renilla, NL43, MT-2 cells infected for 4-5 days with recombinant NL4-3 Renilla luciferase virus. Put shortly:
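Reporter virus is produced in 293T cells and its titer set in MT-2 cells by luciferase activity. MT-2 cells are then infected in the presence of serially diluted compound for 4-5 days. Luciferase is quantified and EC50 fitted to the median effect equation.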

A short description of data set [2]: Compound cytotoxicity, XTT-based colorimetric assay. The following applies: human; uninfected MT2 cells, day 4, XTT; read-out: CC50. The data set is classed as cell-based. In outline:
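CC50 derived from XTT colorimetric signal measured on day 4 in MT2 cells that were not infected. All other steps followed the antiviral assay protocol.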
(Tetrazolium dyes change colour on reduction, which living cells bring about.)

For the compound `COCCCn1nc(NS(C)(=O)=O)c2c(Cl)ccc(-n3c([C@H](Cc4cc(F)cc(F)c4)NC(=O)Cn4nc(C(F)F)c5c4C(F)(F)[C@@H]4C[C@H]54)nc4nc(C5CCC(F)(F)CC5)cc(NC[C@H]5CCOC5)c4c3=O)c21` (atropisomer, axis not shown; (P)) [Example 567, N-[(1S)-1-[(3P)-3-[4-chloro-3-methanesulfonamido-1-(3-methoxypropyl)-1H-indazol-7-yl]-7-(4,4-difluorocyclohexyl)-4-oxo-5-({[(3R)-oxolan-3-yl]methyl}amino)-3H,4H-pyrido[2,3-d]pyrimidin-2-yl]-2-(3,5-difluorophenyl)ethyl]-2-[(2S,4R)-9-(difluoromethyl)-5,5-difluoro-7,8-diazatricyclo[4.3.0.0^2,^4]nona-1(6),8-dien-7-yl]acetamide], the pEC50 in data set [1] is 11.05. In addition, in data set [2], the CC50 at 4 days is greater than 20 nM.

On to `COCCCn1nc(NS(C)(=O)=O)c2c(Cl)ccc(-n3c([C@H](Cc4cc(F)cc(F)c4)NC(=O)Cn4nc(C(F)F)c5c4C(F)(F)[C@@H]4C[C@H]54)nc4nc(C5CCC(F)(F)CC5)cc(NC[C@@H]5CCOC5)c4c3=O)c21` (atropisomer, axis not shown; (P)) [Example 568, N-[(1S)-1-[(3P)-3-[4-chloro-3-methanesulfonamido-1-(3-methoxypropyl)-1H-indazol-7-yl]-7-(4,4-difluorocyclohexyl)-4-oxo-5-({[(3S)-oxolan-3-yl]methyl}amino)-3H,4H-pyrido[2,3-d]pyrimidin-2-yl]-2-(3,5-difluorophenyl)ethyl]-2-[(2S,4R)-9-(difluoromethyl)-5,5-difluoro-7,8-diazatricyclo[4.3.0.0^2,^4]nona-1(6),8-dien-7-yl]acetamide], for which, in data set [1], the pEC50 is 11.00. The CC50 at 4 days in data set [2] is greater than 20 nM.

`Cc1cc(C2(F)CCC(F)(F)CC2)nc2nc([C@H](Cc3cc(F)cc(F)c3)NC(=O)Cn3nc(C(F)(F)F)c4c3C(F)(F)[C@@H]3C[C@H]43)n(-c3ccc(Cl)c4c(NS(C)(=O)=O)nn(CCN5C[C@H](F)C[C@H](F)C5)c34)c(=O)c12` (atropisomer, axis not shown; (P)) [Example 569, N-[(1S)-1-[(3P)-3-(4-chloro-1-{2-[(3R,5S)-3,5-difluoropiperidin-1-yl]ethyl}-3-methanesulfonamido-1H-indazol-7-yl)-5-methyl-4-oxo-7-(1,4,4-trifluorocyclohexyl)-3H,4H-pyrido[2,3-d]pyrimidin-2-yl]-2-(3,5-difluorophenyl)ethyl]-2-[(2S,4R)-5,5-difluoro-9-(trifluoromethyl)-7,8-diazatricyclo[4.3.0.0^2,^4]nona-1(6),8-dien-7-yl]acetamide]: the negative-log EC50 (pEC50) in data set [1] is 10.92. Further, the 50% cytotoxic concentration (CC50) at 4 days in data set [2] is greater than 20 nM.

As for `Cc1cc(C2(F)CCC(F)(F)CC2)nc2nc([C@H](Cc3cc(F)cc(F)c3)NC(=O)Cn3nc(C4CC4)c4c3C(F)(F)[C@@H]3C[C@H]43)n(-c3ccc(Cl)c4c(NS(C)(=O)=O)nn(CCN5C[C@H](F)C[C@H](F)C5)c34)c(=O)c12` (atropisomer, axis not shown; (P)) [Example 570, N-[(1S)-1-[(3P)-3-(4-chloro-1-{2-[(3R,5S)-3,5-difluoropiperidin-1-yl]ethyl}-3-methanesulfonamido-1H-indazol-7-yl)-5-methyl-4-oxo-7-(1,4,4-trifluorocyclohexyl)-3H,4H-pyrido[2,3-d]pyrimidin-2-yl]-2-(3,5-difluorophenyl)ethyl]-2-[(2S,4R)-9-cyclopropyl-5,5-difluoro-7,8-diazatricyclo[4.3.0.0^2,^4]nona-1(6),8-dien-7-yl]acetamide], the pEC50 in data set [1] is 10.54. Further, the 50% cytotoxic concentration (CC50) at 4 days in data set [2] was greater than 20 nM.

In the case of `Cc1cc(C2(F)CCC(F)(F)CC2)nc2nc([C@H](Cc3cc(F)cc(F)c3)NC(=O)Cn3nc(C(F)F)c4c3C[C@@H]3C[C@H]43)n(-c3ccc(Cl)c4c(NS(C)(=O)=O)nn(CCN5C[C@H](F)C[C@H](F)C5)c34)c(=O)c12` (atropisomer, axis not shown; (P)) [Example 571, N-[(1S)-1-[(3P)-3-(4-chloro-1-{2-[(3R,5S)-3,5-difluoropiperidin-1-yl]ethyl}-3-methanesulfonamido-1H-indazol-7-yl)-5-methyl-4-oxo-7-(1,4,4-trifluorocyclohexyl)-3H,4H-pyrido[2,3-d]pyrimidin-2-yl]-2-(3,5-difluorophenyl)ethyl]-2-[(2S,4S)-9-(difluoromethyl)-7,8-diazatricyclo[4.3.0.0^2,^4]nona-1(6),8-dien-7-yl]acetamide], in data set [1], the negative-log EC50 (pEC50) was 10.85. Besides, the CC50 at 4 days in data set [2] is greater than 20 nM.

With `Cc1cc(C2(F)CCC(F)(F)CC2)nc2nc([C@H](Cc3cc(F)cc(F)c3)NC(=O)Cn3nc(C(F)(F)F)c4c3C[C@@H]3C[C@H]43)n(-c3ccc(Cl)c4c(NS(C)(=O)=O)nn(CCN5C[C@H](F)C[C@H](F)C5)c34)c(=O)c12` (atropisomer, axis not shown; (P)) [Example 572, N-[(1S)-1-[(3P)-3-(4-chloro-1-{2-[(3R,5S)-3,5-difluoropiperidin-1-yl]ethyl}-3-methanesulfonamido-1H-indazol-7-yl)-5-methyl-4-oxo-7-(1,4,4-trifluorocyclohexyl)-3H,4H-pyrido[2,3-d]pyrimidin-2-yl]-2-(3,5-difluorophenyl)ethyl]-2-[(2S,4S)-9-(trifluoromethyl)-7,8-diazatricyclo[4.3.0.0^2,^4]nona-1(6),8-dien-7-yl]acetamide], the negative-log EC50 (pEC50) in data set [1] was 10.82. Further, the CC50 at 4 days in data set [2] is greater than 20 nM.

As to `Cc1cc(C2(F)CCC(F)(F)CC2)nc2nc([C@H](Cc3cc(F)cc(F)c3)NC(=O)Cn3nc([C@H]4CC4(F)F)c4c3C[C@H]3C[C@@H]43)n(-c3ccc(Cl)c4c(NS(C)(=O)=O)nn(CCN5C[C@H](F)C[C@H](F)C5)c34)c(=O)c12` (atropisomer, axis not shown; (P)) [Example 573, N-[(1S)-1-[(3P)-3-(4-chloro-1-{2-[(3R,5S)-3,5-difluoropiperidin-1-yl]ethyl}-3-methanesulfonamido-1H-indazol-7-yl)-5-methyl-4-oxo-7-(1,4,4-trifluorocyclohexyl)-3H,4H-pyrido[2,3-d]pyrimidin-2-yl]-2-(3,5-difluorophenyl)ethyl]-2-[(2R,4R)-9-[(1R)-2,2-difluorocyclopropyl]-7,8-diazatricyclo[4.3.0.0^2,^4]nona-1(6),8-dien-7-yl]acetamide], the pEC50 in data set [1] is 10.92. Further, the half-maximal cytotoxic concentration (CC50) at 4 days in data set [2] was greater than 20 nM.

Consider `Cc1cc(C2(F)CCC(F)(F)CC2)nc2nc([C@H](Cc3cc(F)cc(F)c3)NC(=O)Cn3nc(C(F)F)c4c3C(F)(F)[C@@H]3C[C@H]43)n(-c3ccc(Cl)c4c(NS(C)(=O)=O)nn(CCN5CCO[C@@H](C(C)C)C5)c34)c(=O)c12` (atropisomer, axis not shown; (P)) [Example 574, N-[(1S)-1-[(3P)-3-(4-chloro-3-methanesulfonamido-1-{2-[(2S)-2-(propan-2-yl)morpholin-4-yl]ethyl}-1H-indazol-7-yl)-5-methyl-4-oxo-7-(1,4,4-trifluorocyclohexyl)-3H,4H-pyrido[2,3-d]pyrimidin-2-yl]-2-(3,5-difluorophenyl)ethyl]-2-[(2S,4R)-9-(difluoromethyl)-5,5-difluoro-7,8-diazatricyclo[4.3.0.0^2,^4]nona-1(6),8-dien-7-yl]acetamide], for which the negative-log EC50 (pEC50) in data set [1] is 10.72. Moreover, the CC50 at 4 days in data set [2] is greater than 20 nM.

In the case of `Cc1cc(C2(F)CCC(F)(F)CC2)nc2nc([C@H](Cc3cc(F)cc(F)c3)NC(=O)Cn3nc(C(F)F)c4c3C(F)(F)[C@@H]3C[C@H]43)n(-c3ccc(Cl)c4c(NS(C)(=O)=O)nn(CCN5CCO[C@H](C(C)C)C5)c34)c(=O)c12` (atropisomer, axis not shown; (P)) [Example 575, N-[(1S)-1-[(3P)-3-(4-chloro-3-methanesulfonamido-1-{2-[(2R)-2-(propan-2-yl)morpholin-4-yl]ethyl}-1H-indazol-7-yl)-5-methyl-4-oxo-7-(1,4,4-trifluorocyclohexyl)-3H,4H-pyrido[2,3-d]pyrimidin-2-yl]-2-(3,5-difluorophenyl)ethyl]-2-[(2S,4R)-9-(difluoromethyl)-5,5-difluoro-7,8-diazatricyclo[4.3.0.0^2,^4]nona-1(6),8-dien-7-yl]acetamide], the pEC50 in data set [1] was 10.92. In data set [2], the 50% cytotoxic concentration (CC50) at 4 days is greater than 20 nM.

As for `Cc1cc(C2(F)CCC(F)(F)CC2)nc2nc([C@H](Cc3cc(F)cc(F)c3)NC(=O)Cn3nc(C(F)F)c4c3C(F)(F)[C@@H]3C[C@H]43)n(-c3ccc(Cl)c4c(NS(C)(=O)=O)nn(CCN5C[C@H](C)OC(C)(C)C5)c34)c(=O)c12` (atropisomer, axis not shown; (P)) [Example 576], the negative logarithm of the EC50 (pEC50) in data set [1] is 11.00. In addition, the CC50 at 4 days in data set [2] is greater than 20 nM.

Regarding `Cc1cc(C2(F)CCC(F)(F)CC2)nc2nc([C@H](Cc3cc(F)cc(F)c3)NC(=O)Cn3nc(C(F)F)c4c3C(F)(F)[C@@H]3C[C@H]43)n(-c3ccc(Cl)c4c(NS(C)(=O)=O)nn(CCN5C[C@@H](C)OC(C)(C)C5)c34)c(=O)c12` (atropisomer, axis not shown; (P)) [Example 577, N-[(1S)-1-[(3P)-3-(4-chloro-3-methanesulfonamido-1-{2-[(6R)-2,2,6-trimethylmorpholin-4-yl]ethyl}-1H-indazol-7-yl)-5-methyl-4-oxo-7-(1,4,4-trifluorocyclohexyl)-3H,4H-pyrido[2,3-d]pyrimidin-2-yl]-2-(3,5-difluorophenyl)ethyl]-2-[(2S,4R)-9-(difluoromethyl)-5,5-difluoro-7,8-diazatricyclo[4.3.0.0^2,^4]nona-1(6),8-dien-7-yl]acetamide], in data set [1], the negative logarithm of the EC50 (pEC50) was 10.85. Also, the CC50 at 4 days in data set [2] is greater than 20 nM.
